Laboratory results taken from US20100056458A1, “Peptides Inhibiting Angiotensin-Converting Enzyme” (CAMPINA NEDERLAND HOLDING B.V., priority 2005, published 2010).

Each substance was assayed on angiotensin-converting enzyme (ACE) (assay: HPLC with mass spectrometry and on-line bioassay unit for assessing ACE-inhibiting activity). Conditions: another batch of the same caseinate.
Type: biochemical
Excerpt: The identity and the activity of the peptides and their mixtures can be determined by known methods, e.g. as described by Van Elswijk et al. J Chromatography A, 1020 (2003) 45-58, involving liquid chromatography coupled to mass spectroscopy, and on-line bioassay. […] The IC50 can be determined in vitro as described by V. Vermeirsen, J. van Camp & J. Verstraete, “Optimisation and validation of an angiotensin-converting enzyme inhibition assay for the screening of bioactive peptides”. J. Biochem. Biophys. Methods 51, 75-87 (2002).
The peptides obtained according to example I, were analysed using HPLC as described by Van Elswijk et al. J Chromatography A 1020 (2003) 45-58. The HPLC eluate was divided over a mass spectrometry for determining the peptide structure and a bioassay unit for assessing the ACE-inhibiting activity. The following peptides were identified: AVP (SEQ ID No. 25), LV (SEQ ID No. 5) and IV (SEQ ID No. 1). Another batch of the same caseinate contained the peptides KIHP (SEQ ID No. 28), KK (SEQ ID No. 73), VPYPQR (SEQ ID No. 20), and KYKVPQ (SEQ ID No. 91). Starting with other casein sources the peptides VLGPV (SEQ ID No. 10), VLPVPQK (SEQ ID No. 75), VPYPQ (SEQ ID No. 21), KK (SEQ ID No. 73), VNELSK (SEQ ID No. 76), and […] (SEQ ID No. 33) were found.
Similarly the product from example II was analysed and contained IAEKT (SEQ ID No. 57), LDIQK (SEQ ID No. 74) and LKALP (SEQ ID No. 64). Starting from other whey protein sources WPC 60 or whey protein isolate, VLGPV (SEQ ID No. 10), VLPVPQ (SEQ ID No. 18), MKGLDI (SEQ ID No. 41), LR (SEQ ID No. 44), MHIRLS (SEQ ID No. 48), IIA (SEQ ID No. 56) were identified.

Substance	identified as ACE-inhibiting peptide
KIHP (listed as Bos taurus) [β-casein-derived peptide]	contained
KYKVPQ (listed as Bos taurus)	contained
VPYPQR (listed as Bos taurus) [β-casein-derived peptide]	contained

Same assay, conditions: hydrolysate of example I (calcium caseinate)

Substance	identified as ACE-inhibiting peptide
AVP	identified

Same assay, conditions: other casein sources

Substance	identified as ACE-inhibiting peptide
FFVAPFPEVFG (listed as Bos taurus)	found
VLGPV (listed as Bos taurus) [β-casein peptide]	found
VLPVPQK (listed as Bos taurus)	found
VNELSK (listed as Bos taurus)	found
VPYPQ (listed as Bos taurus) [β-casein-derived peptide]	found

Same assay, conditions: other whey protein sources WPC 60 or whey protein isolate

Substance	identified as ACE-inhibiting peptide
IIA (listed as Bos taurus)	identified
MHIRLS (listed as Bos taurus)	identified
MKGLDI (listed as Bos taurus) [β-lactoglobulin-derived peptide]	identified
VLGPV (listed as Bos taurus) [β-casein peptide]	identified
VLPVPQ (listed as Bos taurus)	identified

Same assay, conditions: product from example II (WPC 80 hydrolysate)

Substance	identified as ACE-inhibiting peptide
IAEKT (listed as Bos taurus) [β-lactoglobulin-derived peptide]	contained
LDIQK (listed as Bos taurus) [β-lactoglobulin-derived peptide]	contained
LKALP (listed as Bos taurus) [β-lactoglobulin-derived peptide]	contained
